Results as given in ChEMBL document CHEMBL5236632, “Membrane-Active Nonivamide Derivatives as Effective Broad-Spectrum Antimicrobials: Rational Design, Synthesis, and Biological Evaluation” (J Med Chem, 2022).
Values after ≈ are worked out from the molar mass of the structure shown. Active and inactive are the calls of the source. The rule behind the calls is not given here.

Legend:
[1] = system: Staphylococcus aureus; test: Antibacterial activity against Staphylococcus aureus ATCC 29213 assessed as inhibition of visible growth measured after 18 to 24 hrs by broth dilution method; type: functional; settings: time 18-24 hrs
[2] = system: Staphylococcus aureus; test: Antibacterial activity against methicillin-resistant Staphylococcus aureus NCTC 10442 assessed as inhibition of visible growth measured after 18 to 24 hrs by broth dilution method; type: functional; settings: time 18-24 hrs
[3] = system: Staphylococcus aureus; test: Antibacterial activity against methicillin-resistant Staphylococcus aureus N315 assessed as inhibition of visible growth measured after 18 to 24 hrs by broth dilution method; type: functional; settings: time 18-24 hrs
[4] = system: Escherichia coli; test: Antibacterial activity against Escherichia coli ATCC 25922 assessed as inhibition of visible growth measured after 18 to 24 hrs by broth dilution method; type: functional; settings: time 18-24 hrs
[5] = Haemolytic activity in rabbit red blood cells incubated for 60 mins by k multi-mode reader relative to control; type: toxicity, cell-based, Oryctolagus cuniculus, Erythrocyte
[6] = Selectivity ratio, HC50 for hemolytic activity in rabbit RBC to MIC for antibacterial activity against Staphylococcus aureus ATCC 29213; type: toxicity; settings: rabbit red blood cells
[7] = Selectivity ratio, HC50 for hemolytic activity in rabbit RBC to MIC for antibacterial activity against methicillin-resistant Staphylococcus aureus NCTC 10442; type: toxicity; settings: rabbit red blood cells
[8] = Selectivity ratio, HC50 for hemolytic activity in rabbit RBC to MIC for antibacterial activity against methicillin-resistant Staphylococcus aureus N315; type: toxicity; settings: rabbit red blood cells
[9] = system: Acinetobacter baumannii; test: Antibacterial activity against Acinetobacter baumannii ATCC 17978 assessed as inhibition of visible growth measured after 18 to 24 hrs by broth dilution method; type: functional; settings: time 18-24 hrs
[10] = system: Acinetobacter baumannii; test: Antibacterial activity against Acinetobacter baumannii R2889 assessed as inhibition of visible growth measured after 18 to 24 hrs by broth dilution method; type: functional; settings: time 18-24 hrs
[11] = Selectivity ratio, HC50 for hemolytic activity in rabbit RBC to MIC for antibacterial activity against Acinetobacter baumannii R2889; type: toxicity; settings: rabbit red blood cells
[12] = system: Staphylococcus aureus; test: Antibacterial activity against Staphylococcus aureus ATCC 29213 assessed as inhibition of visible growth measured after 18 to 24 hrs in presence of 3220 ug/ml Na+ by broth dilution method; type: functional; settings: time 18-24 hrs
[13] = system: Staphylococcus aureus; test: Antibacterial activity against methicillin-resistant Staphylococcus aureus NCTC 10442 assessed as inhibition of visible growth measured after 18 to 24 hrs in presence of 175.5 ug/ml K+ by broth dilution method; type: functional; settings: time 18-24 hrs
[14] = system: Staphylococcus aureus; test: Antibacterial activity against methicillin-resistant Staphylococcus aureus NCTC 10442 assessed as inhibition of visible growth measured after 18 to 24 hrs in presence of 100 ug/ml Ca2+ by broth dilution method; type: functional; settings: time 18-24 hrs
[15] = system: Staphylococcus aureus; test: Antibacterial activity against methicillin-resistant Staphylococcus aureus NCTC 10442 assessed as inhibition of visible growth measured after 18 to 24 hrs in presence of 24.3 ug/ml Mg2+ by broth dilution method; type: functional; settings: time 18-24 hrs
[16] = system: Escherichia coli; test: Antibacterial activity against Escherichia coli […] assessed as inhibition of visible growth measured after 18 to 24 hrs in presence of 3220 ug/ml Na+ by broth dilution method; type: functional; settings: time 18-24 hrs
[17] = system: Klebsiella pneumoniae; test: Antibacterial activity against Klebsiella pneumoniae ATCC 10031 assessed as inhibition of visible growth measured after 18 to 24 hrs in presence of 3220 ug/ml Na+ by broth dilution method; type: functional; settings: time 18-24 hrs
[18] = system: Klebsiella pneumoniae; test: Antibacterial activity against Klebsiella pneumoniae ATCC 10031 assessed as inhibition of visible growth measured after 18 to 24 hrs in presence of 175.5 ug/ml K+ by broth dilution method; type: functional; settings: time 18-24 hrs
[19] = system: Klebsiella pneumoniae; test: Antibacterial activity against Klebsiella pneumoniae ATCC 10031 assessed as inhibition of visible growth measured after 18 to 24 hrs in presence of 100 ug/ml Ca2+ by broth dilution method; type: functional; settings: time 18-24 hrs
[20] = system: Klebsiella pneumoniae; test: Antibacterial activity against Klebsiella pneumoniae ATCC 10031 assessed as inhibition of visible growth measured after 18 to 24 hrs in presence of 24.3 ug/ml Mg2+ by broth dilution method; type: functional; settings: time 18-24 hrs
[21] = system: Escherichia coli; test: Antibacterial activity against Escherichia coli ATCC 25922 assessed as reduction in bacterial load at 8 time of MIC measured with in 30 mins by time kill assay; type: functional; settings: 0.5 h
[22] = system: Cell membrane; test: Induction of membrane integrity disruption in Escherichia coli ATCC 25922 assessed as increase fluoresence intensity at 4 to 8 times of MIC measured for 60 mins by SYTOX Green uptake assay; type: subcellular
[23] = system: Staphylococcus aureus; test: Displacement of BODIPY-TR-cadaverin from Staphylococcus aureus lipoteichoic acid at 8 times of MIC incubated for 30 mins by fluorescence based analysis
[24] = system: Lipopolysaccharide (LPS); test: Displacement of BODIPY-TR-cadaverin from Escherichia coli lipopolysaccharide at 8 times of MIC incubated for 30 mins by fluorescence based analysis
[25] = system: Escherichia coli; test: Antibacterial activity against Escherichia coli ATCC 25922 assessed as fold increase in MIC measured after 18 to 24 hrs in presence of 512 ug/ml LTA/LPS by broth dilution method; type: functional; settings: time 18-24 hrs
[26] = system: Escherichia coli; test: Inhibition of biofilm formation Escherichia coli ATCC 25922 assessed as decrease in biofilm formation at 0.78 ug/ml measured after 24 hrs by crystal violet staining assay; type: functional
[27] = system: Escherichia coli; test: Inhibition of biofilm formation Escherichia coli ATCC 25922 assessed as decrease in biofilm formation at 3.13 ug/ml measured after 24 hrs by crystal violet staining assay; type: functional
[28] = system: Staphylococcus aureus; test: Eradication of biofilm in Staphylococcus aureus ATCC 29213 assessed as biofilm viability at 0.39 ug/ml measured after 24 hrs by crystal violet staining assay; type: functional; settings: dose 0.39 µg/ml
[29] = system: Staphylococcus aureus; test: Eradication of biofilm in Staphylococcus aureus ATCC 29213 assessed as biofilm viability at 0.78 ug/ml measured after 24 hrs by crystal violet staining assay; type: functional; settings: dose 0.78 µg/ml
[30] = system: Staphylococcus aureus; test: Eradication of biofilm in Staphylococcus aureus ATCC 29213 assessed as biofilm viability at […] ug/ml measured after 24 hrs by crystal violet staining assay; type: functional; settings: dose […] microg/ml, 1.56 ug/mL
[31] = system: Staphylococcus aureus; test: Eradication of biofilm in Staphylococcus aureus ATCC 29213 assessed as biofilm viability at 6.25 ug/ml measured after 24 hrs by crystal violet staining assay; type: functional; settings: dose 6.25 µg/ml
[32] = system: Escherichia coli; test: Eradication of biofilm in Escherichia coli ATCC 25922 assessed as biofilm viability at 3.13 ug/ml measured after 24 hrs by crystal violet staining assay; type: functional; settings: dose 3.13 µg/ml
[33] = system: Escherichia coli; test: Eradication of biofilm in Escherichia coli ATCC 25922 assessed as biofilm viability at 6.25 ug/ml measured after 24 hrs by crystal violet staining assay; type: functional; settings: dose 6.25 µg/ml
[34] = system: Escherichia coli; test: Eradication of biofilm in Escherichia coli ATCC 25922 assessed as biofilm viability at 12.5 ug/ml measured after 24 hrs by crystal violet staining assay; type: functional; settings: dose 12.5 µg/ml
[35] = Cytotoxicity against HEK293 cells assessed as cell viability after 24 hrs incubation byCCK-8 assay; type: toxicity, cell-based; settings: human
[36] = system: Staphylococcus aureus; test: In vivo antibacterial activity against Staphylococcus aureus ATCC 29213 infected in C57BL/6 mouse keratitis model assessed as reduction in number of viable bacterial colonies in infected cornea at 5 mg/kg topically 4 times per day for 3 consecutive days; type: functional; settings: route top, time 3 day

CCCCCCCCC(=O)NCc1ccc(OCCCCCCNC(=N)N)c(OCCCCCCNC(=N)N)c1
MIC [1]: 0.78 µg/mL (≈ 1.39 µM) | MIC [2]: 0.39 µg/mL (≈ 0.694 µM) | MIC [3]: 0.39 µg/mL (≈ 0.694 µM) | MIC [4]: 1.56 µg/mL (≈ 2.78 µM) | HC5 ([5]; erythrocyte, 1 h): 64.3 µg/mL | HC50 at 1 h ([5]; rabbit red blood cells): 135 µg/mL | selectivity ratio [6]: 173 | selectivity ratio [7]: 173 | selectivity ratio [8]: 173 | MIC [9]: 3.12 µg/mL (≈ 5.56 µM) | MIC [10]: 6.25 µg/mL (≈ 11.1 µM) | selectivity ratio [11]: 21.6 | MIC [12]: 0.39 µg/mL | MIC [13]: 0.39 µg/mL | MIC [14]: 0.39 µg/mL | MIC [15]: 0.39 µg/mL | MIC [16]: 1.56 µg/mL | MIC [17]: 1.56 µg/mL | MIC [18]: 0.78 µg/mL | MIC [19]: 3.12 µg/mL | MIC [20]: 1.56 µg/mL | Activity [21]: 4.56 log10CFU/ml | Activity [22]: Active | Activity [23]: 38.4% | Activity [24]: 103% | fold change (FC) [25]: 16 | inhibition at 0.78 µg/mL [26]: 88.9% | inhibition at 3.13 µg/mL [27]: 106% | Activity [28]: 73.22% | Activity [29]: 64.77% | Activity [30]: 36.07% | Activity [31]: 10.9% | Activity [32]: 38.07% | Activity [33]: 22.66% | Activity [34]: 15.04% | CC50 at 24 h [35]: 27.8 µg/mL (≈ 49.5 µM) | Activity [36]: 6.5 log10CFU/ml
